Counter-ions that a name gives are not always drawn.

As usually defined, the melting point is the temperature of the solid-liquid transition.

Turning to `O=CO[C@H]1CC[C@H](Nc2ncc3c(n2)NC(=O)N(c2ccccc2Cl)C3)CC1` [Compound 4-15, 3-(2-chlorophenyl)-7-(trans-4-formyloxycyclohexylamino)-3,4-dihydropyrimido[4,5-d]pyrimidin-2(1H)-one], the melting point was over 300 °C.
`CC(=O)O[C@H]1CC[C@H](Nc2ncc3c(n2)NC(=O)N(c2ccccc2Cl)C3)CC1` (as salt: hydrochloride) [Compound 4-13, 7-(trans-4-acetyloxycyclohexylamino)-3-(2-chlorophenyl)-3,4-dihydropyrimido[4,5-d]pyrimidin-2(1H)-one] returned a melting point of over 300 °C.
To `CN1C(=O)N(c2ccccc2Cl)Cc2cnc(NC3(CO)CCCCC3)nc21` (as salt: hydrochloride) [Compound 3-43, 3-(2-chlorophenyl)-7-[(1-hydroxymethylcyclohexyl)amino]-1-methyl-3,4-dihydropyrimido[4,5-d]pyrimidin-2(1H)-one] belongs 203.7 to 207.8 °C; to `CCOCC(COCC)N1C(=O)N(c2ccccc2Cl)Cc2cnc(N[C@H](C)CO)nc21` (as salt: hydrochloride) [Compound 3-21, (R)-3-(2-chlorophenyl)-7-[(2-hydroxy-1-methylethyl)amino]-1-(2-ethoxy-1-ethoxymethylethyl)-3,4-dihydropyrimido[4,5-d]pyrimidin-2(1H)-one], 169.7 to 175.1 °C; to `CNC(=O)O[C@H]1CC[C@H](Nc2ncc3c(n2)NC(=O)N(c2ccccc2Cl)C3)CC1` (as salt: hydrochloride) [Compound 4-22, 3-(2-chlorophenyl)-7-(trans-4-methylaminocarbonyloxycyclohexylamino)-3,4-dihydropyrimido[4,5-d]pyrimidin-2(1H)-one], 269 to 271 °C.
To `Cc1ccccc1N1Cc2cnc(N[C@H](C)[C@@H](O)CO)nc2N(C)C1=O` [Compound 3-23, 7-((R,R)-2,3-dihydroxy-1-methylpropylamino)-3-ortho-tolyl-1-methyl-3,4-dihydropyrimido[4,5-d]pyrimidin-2(1H)-one] belongs 119.8 to 121.8 °C; to `Cc1ccccc1N1Cc2cnc(NC3CCN(Cc4ccccc4)CC3)nc2N(C)C1=O` (as salt: hydrochloride) [Compound 2-9, 7-(1-benzylpiperidin-4-ylamino)-1-methyl-3-ortho-tolyl-3,4-dihydropyrimido[4,5-d]pyrimidin-2(1H)-one], 253 to 253.9 °C; to `CN1C(=O)N(c2ccccc2Cl)Cc2cnc(NC(C)(C)C(O)CO)nc21` (centres unmarked) (as salt: hydrochloride) [Compound 3-28, 3-(2-chlorophenyl)-7-(2,3-dihydroxy-1,1-dimethylpropylamino)-1-methyl-3,4-dihydropyrimido[4,5-d]pyrimidin-2(1H)-one], 203.1 to 204.1 °C.
In turn, `NC(=O)O[C@H]1CC[C@H](Nc2ncc3c(n2)NC(=O)N(c2ccccc2Cl)C3)CC1` (as salt: hydrochloride) [Compound 4-21, 7-(trans-4-carbamoyloxycyclohexylamino)-3-(2-chlorophenyl)-3,4-dihydropyrimido[4,5-d]pyrimidin-2(1H)-one] registered a melting point of 267 to 267.6 °C.
As for `C[C@@H](CO)Nc1ncc2c(n1)N(C1CCNCC1)C(=O)N(c1ccccc1Cl)C2` (as salt: hydrochloride), the melting point fell in the range of 244 to 248 °C.
Regarding `O=C1Nc2nc(NCC3CCC(O)CC3)ncc2CN1c1ccccc1Cl` (centres unmarked) (as salt: hydrochloride) [Compound 4-17, 3-(2-chlorophenyl)-7-[(4-hydroxycyclohexylmethyl)amino]-3,4-dihydropyrimido[4,5-d]pyrimidin-2(1H)-one], the melting point is 208.3 to 217.9 °C.
The result for `Cc1ccccc1N1Cc2cnc(N[C@H](C)[C@@H](O)CO)nc2NC1=O` (as salt: hydrochloride) [Compound 4-4, (R,R)-7-(2,3-dihydroxy-1-methylpropylamino)-3-ortho-tolyl-3,4-dihydropyrimido[4,5-d]pyrimidin-2(1H)-one] reads 161 to 172 °C.
`O=C(O)CN1C(=O)N(c2ccccc2Cl)Cc2cnc(N[C@H]3CC[C@H](O)CC3)nc21` [Compound 3-53, 3-(2-chlorophenyl)-7-(trans-4-hydroxycyclohexylamino)-1-hydroxycarbonylmethyl-3,4-dihydropyrimido[4,5-d]pyrimidin-2(1H)-one] yielded a melting point of 230 to 240 °C.
To `NC(=O)CN1CCC(CNc2ncc3c(n2)NC(=O)N(c2ccccc2Cl)C3)CC1` (as salt: hydrochloride) [Compound 2-23, 3-(2-chlorophenyl)-7-[(1-aminocarbonylmethylpiperidin-4-ylmethyl)amino]-3,4-dihydropyrimido[4,5-d]pyrimidin-2(1H)-one] belongs 229.9 to 232.2 °C; to `COC(=O)O[C@H]1CC[C@H](Nc2ncc3c(n2)NC(=O)N(c2ccccc2Cl)C3)CC1` (as salt: hydrochloride) [Compound 4-20, 3-(2-chlorophenyl)-7-(trans-4-methoxycarbonyloxycyclohexylamino)-3,4-dihydropyrimido[4,5-d]pyrimidin-2(1H)-one], over 260 °C; to `O=C1Nc2nc(NC3CCC4(CC3)OCCO4)ncc2CN1c1ccccc1Cl` (as salt: hydrochloride) [Compound 4-24, 3-(2-chlorophenyl)-7-(1,4-dioxaspiro[4.5]dec-8-ylamino)-3,4-dihydropyrimido[4,5-d]pyrimidin-2(1H)-one], 173.6 to 189.7 °C.
The result for `O=C(O)CN1CCC(CNc2ncc3c(n2)NC(=O)N(c2ccccc2Cl)C3)CC1` (as salt: hydrochloride) [Compound 2-24, 3-(2-chlorophenyl)-7-[(1-hydroxycarbonylmethylpiperidin-4-ylmethyl)amino]-3,4-dihydropyrimido[4,5-d]pyrimidin-2(1H)-one] reads 215 to 219 °C; that for `N#CCN1CCC(CNc2ncc3c(n2)NC(=O)N(c2ccccc2Cl)C3)CC1` (as salt: hydrochloride) [Compound 2-22, 3-(2-chlorophenyl)-7-[(1-cyanomethylpiperidin-4-ylmethyl)amino]-3,4-dihydropyrimido[4,5-d]pyrimidin-2(1H)-one], 207.2 to 207.7 °C; that for `CN1C(=O)N(c2ccccc2Cl)Cc2cnc(NC3CCC(=O)CC3)nc21` (as salt: hydrochloride) [Compound 3-46, 3-(2-chlorophenyl)-7-(4-oxo-cyclohexylamino)-1-methyl-3,4-dihydropyrimido[4,5-d]pyrimidin-2(1H)-one], 233.4 to 236.3 °C.
To `O=C1CCC(Nc2ncc3c(n2)NC(=O)N(c2ccccc2Cl)C3)CC1` (as salt: hydrochloride) [Compound 4-23, 3-(2-chlorophenyl)-7-(4-oxo-cyclohexylamino)-3,4-dihydropyrimido[4,5-d]pyrimidin-2(1H)-one] belongs 204 to 210 °C; to `CS(=O)(=O)N[C@H]1CC[C@H](Nc2ncc3c(n2)NC(=O)N(c2ccccc2Cl)C3)CC1` [Compound 4-28, 3-(2-chlorophenyl)-7-[trans-4-(methanesulfonylamino)cyclohexylamino]-3,4-dihydropyrimido[4,5-d]pyrimidin-2(1H)-one], 292.8 to 293.2 °C; to `COC(=O)CN1C(=O)N(c2ccccc2Cl)Cc2cnc(N[C@H]3CC[C@H](O)CC3)nc21` [Compound 3-49, 3-(2-chlorophenyl)-7-(trans-4-hydroxycyclohexylamino)-1-methoxycarbonylmethyl-3,4-dihydropyrimido[4,5-d]pyrimidin-2(1H)-one], 212 to 215 °C.
`Cc1ccccc1N1Cc2cnc(NC3CCN(C[C@@H](O)CO)CC3)nc2N(C)C1=O` (as salt: hydrochloride) [Compound 2-14, (R)-7-[1-(2,3-dihydroxypropyl)piperidin-4-ylamino]-1-methyl-3-ortho-tolyl-3,4-dihydropyrimido[4,5-d]pyrimidin-2(1H)-one]: the melting point was 195 to 208 °C.
Take `CN(C)C(=O)CN1CCC(CNc2ncc3c(n2)NC(=O)N(c2ccccc2Cl)C3)CC1` (as salt: hydrochloride) [Compound 2-19, 3-(2-chlorophenyl)-7-[(1-dimethylaminocarbonylmethylpiperidin-4-ylmethyl)amino]-3,4-dihydropyrimido[4,5-d]pyrimidin-2(1H)-one]: the melting point fell in the range of 210.2 to 214.4 °C.
To `Cc1ccccc1N1Cc2cnc(NC3CCN(CCO)CC3)nc2N(C)C1=O` [Compound 2-13, 7-[1-(2-hydroxyethyl)-piperidin-4-ylamino]-1-methyl-3-ortho-tolyl-3,4-dihydropyrimido[4,5-d]pyrimidin-2(1H)-one] belongs 250 to 257 °C; to `O=C1N(c2ccccc2Cl)Cc2cnc(N[C@H]3CC[C@H](O)CC3)nc2N1Cc1ccccc1` (as salt: hydrochloride) [Compound 3-48, 1-benzyl-3-(2-chlorophenyl)-7-(trans-4-hydroxycyclohexylamino)-3,4-dihydropyrimido[4,5-d]pyrimidin-2(1H)-one], 218.5 to 221 °C.
To `O=C1N(c2ccccc2Cl)Cc2cnc(N[C@H]3CC[C@H](O)CC3)nc2N1CCO` [Compound 3-56, 3-(2-chlorophenyl)-7-(trans-4-hydroxycyclohexylamino)-1-(2-hydroxyethyl)-3,4-dihydropyrimido[4,5-d]pyrimidin-2(1H)-one] belongs 96.6 to 122.8 °C; to `C[C@@H](O)[C@H](CO)Nc1ncc2c(n1)N(C)C(=O)N(c1ccccc1Cl)C2` (stereo in doubt) (as salt: hydrochloride) [Compound 1-13, 3-(2-chlorophenyl)-7-((1S,2R)-2-hydroxy-1-hydroxymethyl-propylamino)-1-methyl-3,4-dihydropyrimido-[4,5-d]pyrimidin-2(1H)-one], 199 to 204 °C; to `Cc1ccccc1N1Cc2cnc(NC3CCN(CCC#N)CC3)nc2N(C)C1=O` (as salt: hydrochloride) [Compound 2-15, 7-[1-(2-cyanoethyl)-piperidin-4-ylamino]-1-methyl-3-ortho-tolyl-3,4-dihydropyrimido[4,5-d]pyrimidin-2(1H)-one], 195 to 208.5 °C.
